The target of one series is T1, hCAR1 (Homo sapiens, UniProt Q14994).
T1 construct: expressed in transfected cells; host or cells: HepG2 (transient transfection)
T1 sequence (Q14994 1-348 isoform Q14994-2): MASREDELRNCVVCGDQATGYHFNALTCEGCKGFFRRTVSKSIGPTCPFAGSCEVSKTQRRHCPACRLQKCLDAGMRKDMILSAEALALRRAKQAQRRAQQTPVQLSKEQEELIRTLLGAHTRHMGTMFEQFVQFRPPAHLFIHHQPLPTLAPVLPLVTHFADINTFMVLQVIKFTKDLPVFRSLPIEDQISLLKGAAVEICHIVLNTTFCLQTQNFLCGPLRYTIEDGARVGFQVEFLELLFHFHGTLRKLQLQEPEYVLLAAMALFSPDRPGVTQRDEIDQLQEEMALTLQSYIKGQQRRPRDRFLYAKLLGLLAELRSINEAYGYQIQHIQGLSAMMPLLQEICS
Briefly: Cell-based inverse agonist assay (CYP2B6-luciferase reporter in HepG2 cells transfected with hCAR1). Here is the method:
HepG2 cells grown in flasks were transfected with Flag-hCAR1 and CYP2B6-luciferase reporter at a 1:3 ratio with Fugene HD (Promega) and incubated for 24 h. Cells were trypsinized and plated in 384-well plates (CulturPlate-384, PerkinElmer) at 5000 cells/well for the primary or secondary screening assays. Cells were treated with chemicals transferred by using a pintool 24 h prior to measuring reporter luciferase activity with SteadyLite firefly luciferase reagent and an EnVision plate reader (PerkinElmer). […] PXR activity was measured in HepG2 cells stably transfected with hPXR and CYP3A4-luciferase reporter (previously described as PXR Clonel cells, see Li, G., et al. (2012) Tox. Appl. Pharm. 258, 268-274; and Lin, W., et al. (2008) J. Biol. Chem. 283, 30650-30657). […] The luminescence signal was detected by using an Envision plate reader (PerkinElmer) and used to calculate the percentage of PXR activation. […] A flowchart of our screening strategy is illustrated in FIG. 1A. HepG2 cells were transiently transfected with pcDNA-hCAR1 and CYP2B6-luciferase plasmids and treated with varying concentrations of the test compounds in 384-well plates for 24 h, and CAR-mediated luciferase activity was measured. Twenty-five hits, defined as those displaying dose-responsive inhibitory effect on the constitutively active hCAR1, were selected and tested in various secondary screening assays. CINPA1 (FIG. 1B) was selected based on its potent inhibitory effect on hCAR1 and lack of detectable agonistic activity against PXR.
For orientation: A reporter such as luciferase makes a cellular process visible.

Another series deals with T2, GST-hCAR-LBD (Homo sapiens, UniProt Q14994).
T2 construct: purchased Life Technologies (Carlsbad, Calif.) or Invitrogen (Carlsbad, Calif.)
T2 sequence (Q14994 109-352 limits assumed): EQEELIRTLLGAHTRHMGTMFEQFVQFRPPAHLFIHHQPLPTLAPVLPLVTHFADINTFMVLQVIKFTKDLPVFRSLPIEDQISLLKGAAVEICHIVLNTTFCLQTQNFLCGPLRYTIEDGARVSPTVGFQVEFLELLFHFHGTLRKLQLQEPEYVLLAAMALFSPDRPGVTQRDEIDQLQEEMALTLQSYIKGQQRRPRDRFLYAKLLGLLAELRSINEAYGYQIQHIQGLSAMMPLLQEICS
As to the kind of experiment: CoAct binding inverse agonist assay (LanthaScreen TR-FRET, fluorescent PGC-1α coactivator recruitment/repression). It counts as biochemical. Particulars: for inhibition at 70 µM: read-out: % Inhibition (70 μM). How it is done:
The effect of putative CAR ligands on the recruitment or repression of PGC-1α binding to hCAR was evaluated by using a LanthaScreen TR-FRET assay according to the manufacturer's instructions. […] The final DMSO concentration was 0.7% in all assay wells. […] The % Inhibition values were then plotted for individual chemicals. When applicable, the graphic software GraphPad Prism 5.04 (GraphPad Software, La Jolla, Calif., USA) was used to fit the data into a one-site competitive-binding equation to derive IC50 values. […] The assay plates were then briefly spun down and incubated for 1 hour at room temperature (25° C.). […] The final DMSO concentration was 0.7% in all assay wells. […] The % Inhibition values were then plotted for individual chemicals. When applicable, the graphic software GraphPad Prism 5.04 (GraphPad Software, La Jolla, Calif., USA) was used to fit the data into a one-site competitive-binding equation to derive IC50 values.

Series [1] concerns CAR-regulated genes in LS174T cells. As to the kind of experiment: Quantitative real-time PCR in LS174T cells. The class given is cell-based. To be noted: 1 μM CINPA1 or 5 μM PK11195, 24 h. The source says:
(§1) RNA was extracted, cDNA synthesized, and gene expression analyzed by performing real-time PCR using Taqman probes for each gene. […] LS174T cells were maintained in 10% charcoal-dextran-treated, FBS media for 4 days before the experiment. […] Briefly, human primary hepatocytes (HPH) were maintained in William's E media with supplements for 4 days before treatment. […] RNA extracted was used for cDNA synthesis and measured by performing quantitative real-time PCR assays with Taqman probes.
Briefly, LS174T were maintained in 10% charcoal-dextran treated-FBS media for 4 days prior to the experiment. […] For the data shown in both FIG. 12A and FIG. 12B, RNA extracted was used for cDNA synthesis and measured by quantitative real-time PCR with Taqman probes. MDR1 mRNA was normalized to the internal control 18S and DMSO treated samples were set to 1. *, p<0.05 when compared to DMSO samples.
(§2) Cell lines or human hepatocytes were treated with chemicals for 24-48 hours before RNA was extracted and purified by using the Maxwell 16LEV simplyRNA tissue kit (Promega). Then, cDNA was prepared from 2 μg of RNA, and diluted cDNA was used to perform quantitative RT-PCR assays by using TaqMan probes (ABI; 7500 Thermocycler) with 18S as the internal standard.
For orientation: Quantitative PCR measures a nucleic acid by following its amplification.

The test system of series [2] is CAR- and PXR-regulated genes in human primary hepatocytes. Briefly: Quantitative real-time PCR in human primary hepatocytes. It counts as cell-based. To be noted: three donors, 1 μM CITCO or 5 μM PK11195, 48 h.
Excerpt: as §1
Briefly, human primary hepatocytes (donor 5) were maintained in William's E Media with supplements for 4 days prior to treatment. […] RNA extracted was used for cDNA synthesis and measured by quantitative real-time PCR with Taqman probes. CYP2B6 and CYP3A4 mRNA were normalized to the internal control 18S and DMSO-treated samples were set to 1.
as §2

Where [3] appears, read: 70 μM compound, 42 μM clotrimazole = 100%, DMSO = 0%.
Setting [4] is: read-out: IC50 (CAR inverse agonistic activity).

pIC50: −log10 of the molar value. Where two headings read alike, the source gives them in different places.

In general, IC50 refers to the concentration at which inhibition is half-maximal. Read a low IC50 as greater potency. In general, inhibition refers to the drop in the measured response relative to a control, in per cent. One may read the pIC50 as the negative decadic logarithm of the IC50, by convention in mol/L. As for `CCN(CC)CC(=O)N1c2ccccc2CCc2ccc(NC(=O)N(CC)CC)cc21` [Compound 8, 3-(5-(diethylglycyl)-10,11-dihydro-5H-dibenzo[b,f]azepin-3-yl)-1,1-diethylurea], at hCAR1, the “IC50” value amounted to 109.6 µM and the “% Inhibition (56 μM)” value amounted to 2.849%. Moreover, the inhibition at 70 µM at GST-hCAR-LBD (setting [3]) turned out to be 93.8%. Besides, the negative logarithm of the IC50 (pIC50) on GST-hCAR-LBD (setting [4]) was 4.85.

As to `CCNS(=O)(=O)Nc1ccc2c(c1)N(C(=O)CN(CC)CC)c1ccccc1CC2` [Compound 9], on hCAR1, the “IC50” value came out at 105.9 µM and the “% Inhibition (56 μM)” value is listed as 4.757%. Further, the inhibition at 70 µM on GST-hCAR-LBD (setting [3]) was determined as 92%. Moreover, the pIC50 on GST-hCAR-LBD (setting [4]) was 4.72.

For the compound `CCN(CC)CC(=O)N1c2ccccc2CCc2ccc(Nc3nnc(C)o3)cc21` [Compound 10, 2-(diethylamino)-1-(3-((5-methyl-1,3,4-oxadiazol-2-yl)amino)-10,11-dihydro-5H-dibenzo[b,f]azepin-5-yl)ethan-1-one], on hCAR1, the “IC50” value was 111.6 µM and the “% Inhibition (56 μM)” value is given as 6.281%. The inhibition at 70 µM at GST-hCAR-LBD (setting [3]) is 93.8%. Moreover, on GST-hCAR-LBD (Table 4, read-out: IC50), the pIC50 was 4.73. Further, at GST-hCAR-LBD (relative to chemical 1), the “fold increase of IC50 (decrease of activity) relative to lead chemical 1 (CINPA1)” value is reported as “about 3.4 fold”.

Regarding `CCC(C)N(C)C(=O)c1cc2ccccc2c(-c2ccccc2Cl)n1` (stereo not shown) [PK11195, reference compound], in series [1], the “CYP2B6 mRNA level” value is recorded as “reduced the levels of CYP2B6”, the “CYP3A4 mRNA level” value is “increased that of CYP3A4” and the “MDR1 mRNA level” value is “reduced MDR1 levels”. Besides, the “CYP2B6 mRNA level, compound alone” value in series [2] was “increased CYP2B6 transcription”.

On to “N-(5-(diethylglycyl)-10,11-dihydro-5H-dibenzo[b,f]azepin-3-yl)isobutyramide [Compound 3]”, for which, on hCAR1, the “IC50” value was determined as 104.4 µM and the “% Inhibition (56 μM)” value came out at 0.03612%. The “% Inhibition (70 μM)” value at GST-hCAR-LBD (setting [3]) was determined as 113.8%. Also, at GST-hCAR-LBD (setting [4]), the pIC50 was 6.17.

Consider `CCOC(=O)Nc1ccc2c(c1)N(C(=O)CN1C(C)(C)CCCC1(C)C)c1ccccc1CC2` [Compound 14, ethyl (5-(2-(2,2,6,6-tetramethylpiperidin-1-yl)acetyl)-10,11-dihydro-5H-dibenzo[b,f]azepin-3-yl)carbamate], for which the inhibition at 70 µM at GST-hCAR-LBD (setting [3]) is 90.5%. For the same compound, at GST-hCAR-LBD (setting [4]), the pIC50 is 5.39. Besides, at GST-hCAR-LBD (relative to chemical 18), the “fold IC50 relative to chemical 18” value is given as “over 6 fold”.

On to `O=C(Nc1ccc2c(c1)N(C(=O)COC1CCCC1)c1ccccc1CC2)OC1CCCCC1` [Compound 51], for which, at GST-hCAR-LBD (Table 4, read-out: IC50), the pIC50 was 7.19.

For the compound `CC(C)OC(=O)Nc1ccc2c(c1)N(C(=O)c1ccco1)c1ccccc1CC2` [Compound 65], the negative-log IC50 (pIC50) at GST-hCAR-LBD (Table 4, read-out: IC50) was 7.12.

Consider `COC(=O)Nc1ccc2c(c1)N(C(=O)CCN1CCOCC1)c1ccccc1CC2` [compound 87], for which the pIC50 at GST-hCAR-LBD (setting [4]) was 6.54.

With `CCNCC(=O)N1c2ccccc2CCc2ccc(N)cc21` [Compound 72], the inhibition at 70 µM on GST-hCAR-LBD (setting [3]) amounted to 27%.

With `O=C(Nc1ccc2c(c1)N(C(=O)Cn1cccc1)c1ccccc1CC2)OC1CCC1` [Compound 42, cyclobutyl (5-(2-(1H-pyrrol-1-yl)acetyl)-10,11-dihydro-5H-dibenzo[b,f]azepin-3-yl)carbamate], the pIC50 on GST-hCAR-LBD (setting [4]) was 7.70.

On to `CCN(CC)CC(=O)N1c2ccccc2CCc2ccc(NC(=O)NC(C)(C)C)cc21` [Compound 7, 1-(tert-butyl)-3-(5-(diethylglycyl)-10,11-dihydro-5H-dibenzo[b,f]azepin-3-yl)urea], for which, at GST-hCAR-LBD (setting [3]), the inhibition at 70 µM amounted to 101%. In addition, the negative logarithm of the IC50 (pIC50) on GST-hCAR-LBD (setting [4]) is 4.89.

These data come from patent US9908890B2, “Selective inhibitors of constitutive androstane receptor” (ST. JUDE CHILDREN'S RESEARCH HOSPITAL, priority 2014, dated 2018).
